Bounds are passed on as bounds.

One experiment deals with T1, human recombinant GPR65 (Homo sapiens, UniProt Q8IYL9).
T1 construct: host or cells: 1321N1 human astrocytoma cells (1321N1-hrGPR65)
T1 sequence (Q8IYL9 whole entry): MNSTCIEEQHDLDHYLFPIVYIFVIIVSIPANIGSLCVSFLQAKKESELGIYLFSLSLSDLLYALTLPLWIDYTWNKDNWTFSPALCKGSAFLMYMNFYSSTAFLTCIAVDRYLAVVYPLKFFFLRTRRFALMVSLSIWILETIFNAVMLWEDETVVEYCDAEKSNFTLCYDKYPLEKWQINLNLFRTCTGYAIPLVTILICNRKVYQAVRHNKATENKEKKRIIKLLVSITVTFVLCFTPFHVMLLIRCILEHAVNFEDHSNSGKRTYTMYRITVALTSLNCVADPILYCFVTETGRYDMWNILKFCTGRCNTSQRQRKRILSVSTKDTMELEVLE
As to the kind of experiment: Human GPR65 cAMP HTRF antagonist assay. The experiment is classed as cell-based.
Conditions: not given
From the text:
In one preferred embodiment, the compound prevents the increase in cytoplasmic cAMP levels expected following GPR65 activation at acidic pH. This prevention of cAMP accumulation in turn prevents downstream signalling through ICER, as described above. The “Human GPR65 cyclic adenosine monophosphate (cAMP) Homogeneous Time Resolved Fluorescence (HTRF) antagonist assay”, or simply “cAMP assay”, as described in the accompanying examples, can be used to measure the potency of GPR65 modulators, which is expressed as the concentration of compound required to reduce the increase in cAMP concentration upon GPR65 activation by 50% (i.e. an IC50).
Human GPR65 Cyclic Adenosine Monophosphate (cAMP) Homogeneous Time Resolved Fluorescence (HTRF) Antagonist Assay Procedure
IC50 data was obtained by the following procedure:
1321N1 human astrocytoma cells stably expressing human recombinant GPR65 (1321N1-hrGPR65 cells, EuroscreenFast) were cultured according to the vendor's instructions.
Compounds were tested for their ability to antagonise GPR65, through measuring the concentration of cytoplasmic cAMP following treatment of the cells at a pH of 7.2 to activate GPR65 signalling and addition of the compound to be tested. The extent to which the expected rise in cAMP concentration upon GPR65 activation was suppressed by the added compound is indicative of its potency. The assay was carried out according to EuroscreenFast assay methodology as follows.
On the day of the assay, test compounds were added to 384-well, low volume, white microtiter plates by acoustic dispensing. KRH buffer (5 mM KCl, 1.25 mM MgSO4, 124 mM NaCl, 25 mM HEPES, 13.3 mM Glucose, 1.25 mM KH2PO4 and 1.45 mM CaCl2) was adjusted to pH 6.5, pH 7.6 and pH 8.4 by adding NaOH. 1321N1-hGPR65 cells were rapidly thawed and diluted in KRH, pH 7.6 prior to centrifugation at 300×g for 5 min and resuspension in assay buffer (KRH, pH 7.6, supplemented with 1 mM 3-isobutyl-1-methylxanthine (IBMX) and 200 μM ethylenediaminetetraacetic acid (EDTA)). Cells were added to assay plates at a density of 2,000 cells per well in a volume of 5 μl. Assay plates were briefly centrifuged at 100×g and then incubated at room temperature for 30 min. Cells were stimulated by the addition of 5 μL KRH, pH 6.5, to achieve an assay pH of 7.2, while control wells received 5 μl KRH, pH 8.4 to achieve an assay pH of 7.9. Assay plates were briefly centrifuged at 100×g and then incubated at room temperature for 30 min.
Accumulation of cAMP was detected by cAMP HTRF kit (Cisbio). d2-labeled cAMP and cryptate-labeled anti-cAMP antibody in Lysis and Detection Buffer (Cisbio) were added to assay plates, and the plates were incubated at room temperature for 1 h. HTRF measurements were performed using a Pherastar FSX instrument. Acceptor and donor emission signals were measured at 665 nm and 620 nm, respectively, and HTRF ratios were calculated as signal665 nm/signal620 nm×104. Data were normalised to high and low control values and fitted with 4-parameter logistic regression to determine hGPR65 IC50 values for the test compounds, which are shown in Table 1.
A general note: In TR-FRET formats the signal depends on donor and acceptor labels being close together.
With `O=C(Nc1ccc(Cl)c(Cl)c1)N1C2CCC1c1ccc(F)cc1C2` (racemic) [Compound 74, (±)-N-(3,4-Dichlorophenyl)-2-fluoro-6,7,8,9-tetrahydro-5H-5,8-epiminobenzo[7]annulene-10-carboxamide], the IC50 (as a rule, the concentration at which inhibition is half-maximal) was below 500 nM.
Still for that read-out and setting: under `O=C(Nc1ccc(C(F)(F)F)c(Cl)c1)N1C2CCC1c1ccc(F)cc1C2` (racemic) [Compound 75, (±)-N-(3-Chloro-4-(trifluoromethyl)phenyl)-2-fluoro-6,7,8,9-tetrahydro-5H-5,8-epiminobenzo[7]annulene-10-carboxamide] stands below 500 nM; under `O=C(Nc1ccc(Cl)c(Cl)c1)N1C2CCC1c1c[nH]c(=O)cc1C2` (racemic) [Compound 76, (±)-N-(3,4-Dichlorophenyl)-3-oxo-3,5,6,7,8,9-hexahydro-2H-6,9-epiminocyclohepta[c]pyridine-10-carboxamide], below 500 nM; under `O=C(Nc1ccc(Cl)c(Cl)c1)N1C2CCC1c1ccnc(Cl)c1C2` (racemic) [Compound 77, (±)-1-Chloro-N-(3,4-dichlorophenyl)-6,7,8,9-tetrahydro-5H-5,8-epiminocyclohepta[c]pyridine-10-carboxamide], below 500 nM.
Regarding `O=C(Nc1ccc(Cl)c(Cl)c1)N1C2CCC1c1ccnc(F)c1C2` (racemic) [Compound 109, (±)-N-(3,4-Dichlorophenyl)-1-fluoro-6,7,8,9-tetrahydro-5H-5,8-epiminocyclohepta[c]pyridine-10-carboxamide], the IC50 was below 500 nM.
Same read-out and setting: next, `O=C(Nc1cc(Cl)c(C(F)(F)F)cc1F)N1C2CCC1c1c[nH]c(=O)c(F)c1C2` (racemic) [Compound 138, (±)-N-(5-Chloro-2-fluoro-4-(trifluoromethyl)phenyl)-4-fluoro-3-oxo-3,5,6,7,8,9-hexahydro-2H-6,9-epiminocyclohepta[c]pyridine-10-carboxamide]: below 500 nM; `O=C(Nc1cc(Cl)c(Cl)cc1F)N1C2CCC1c1c[nH]c(=O)c(F)c1C2` (racemic) [Compound 139, (±)-N-(4,5-Dichloro-2-fluorophenyl)-4-fluoro-3-oxo-3,5,6,7,8,9-hexahydro-2H-6,9-epiminocycloheptan[c]pyridine-10-carboxamide]: below 500 nM.

The experiment is the same for the next values; noted with them: 1321N1-hrGPR65 cells, assay pH 7.2, cAMP HTRF; read-out: hGPR65 IC50 (activity class).
As for `O=C(Nc1ccc(C(F)(F)F)c(Cl)c1)N1C2CCC1c1ccc(Cl)cc1C2` (racemic) [Compound 71, (±)-2-Chloro-N-(3-chloro-4-(trifluoromethyl)phenyl)-6,7,8,9-tetrahydro-5H-5,8-epiminobenzo[7]annulene-10-carboxamide], the concentration for half-maximal inhibition (IC50) is 500 to 5000 nM.
As for `N#Cc1ccc2c(c1)CC1CCC2N1C(=O)Nc1ccc(Cl)c(Cl)c1` (racemic) [Compound 72, (±)-2-Cyano-N-(3,4-dichlorophenyl)-6,7,8,9-tetrahydro-5H-5,8-epiminobenzo[7]annulene-10-carboxamide], the IC50 lay in the range of 500 to 5000 nM.
Same read-out and setting: under `Nc1ccc2c(c1)CC1CCC2N1C(=O)Nc1ccc(Cl)c(Cl)c1` (racemic) [Compound 73, (±)-2-Amino-N-(3,4-dichlorophenyl)-6,7,8,9-tetrahydro-5H-5,8-epiminobenzo[7]annulene-10-carboxamide] stands above 5000 nM; under `O=C(Nc1ccc(Cl)c(Cl)c1)N1C2CCC1c1cc(F)ccc1C2` (racemic) [Compound 80, (±)-N-(3,4-Dichlorophenyl)-3-fluoro-6,7,8,9-tetrahydro-5H-5,8-epiminobenzo[7]annulene-10-carboxamide], 500 to 5000 nM.
For the compound `O=C(Nc1ccc(C(F)(F)F)c(Cl)c1)N1C2CCC1c1cc(F)ccc1C2` (racemic) [Compound 81, (±)-N-(3-Chloro-4-(trifluoromethyl)phenyl)-3-fluoro-6,7,8,9-tetrahydro-5H-5,8-epiminobenzo[7]annulene-10-carboxamide], the IC50 was in the range of 500 to 5000 nM.
On the same count and under the same terms, under `CC(C)(C)OC(=O)Nc1nccc2c1C1CCC(C2)N1C(=O)Nc1ccc(Cl)c(Cl)c1` (racemic) [Compound 82, tert-butyl ((±)-10-((3,4-dichlorophenyl)carbamoyl)-6,7,8,9-tetrahydro-5H-6,9-epiminocyclohepta[c]pyridin-1-yl)carbamate] stands 500 to 5000 nM; under `O=C(Nc1ccc(Cl)c(Cl)c1)N1C2CCC1c1cccc(F)c1C2` (racemic) [Compound 83, (±)-N-(3,4-Dichlorophenyl)-1-fluoro-6,7,8,9-tetrahydro-5H-5,8-epiminobenzo[7]annulene-10-carboxamide], 500 to 5000 nM; under `O=C(Nc1ccc(C(F)(F)F)c(Cl)c1)N1C2CCC1c1cccc(F)c1C2` (racemic) [Compound 84, (±)-N-(3-Chloro-4-(trifluoromethyl)phenyl)-1-fluoro-6,7,8,9-tetrahydro-5H-5,8-epiminobenzo[7]annulene-10-carboxamide], 500 to 5000 nM.
Take `O=C(Nc1ccc(Cl)c(Cl)c1)N1C2CCC1c1cccnc1C2` (racemic) [Compound 87, (±)-N-(3,4-Dichlorophenyl)-6,7,8,9-tetrahydro-5H-5,8-epiminocyclohepta[b]pyridine-10-carboxamide]: the half-maximal inhibitory concentration (IC50) is above 5000 nM.
The same measure, in the same setting: next, `O=C(Nc1ccc(Cl)c(Cl)c1)N1C2CCC1c1cncc(F)c1C2` (racemic) [Compound 95, (±)-N-(3,4-Dichlorophenyl)-4-fluoro-6,7,8,9-tetrahydro-5H-6.9-epiminocyclohepta[c]pyridine-10-carboxamide]: 500 to 5000 nM; `O=C(Nc1ccc(Cl)c(Cl)c1)N1C2CCC1c1cnc(Br)cc1C2` (racemic) [Compound 99, (±)-3-Bromo-N-(3,4-dichlorophenyl)-6,7,8,9-tetrahydro-5H-6,9-epiminocyclohepta[c]pyridine-10-carboxamide]: above 5000 nM.
For `O=C(Nc1ccc(Cl)c(Cl)c1)N1C2CCC1c1cnc(Cl)cc1C2` (racemic) [Compound 100, (±)-3-Chloro-N-(3,4-dichlorophenyl)-6,7,8,9-tetrahydro-5H-6,9-epiminocyclohepta[c]pyridine-10-carboxamide], the IC50 was in the range of 500 to 5000 nM.
As for `O=C(Nc1ccc(Cl)c(Cl)c1)N1C2CCC1c1cnccc1C2` (racemic) [Compound 104, (±)-N-(3,4-Dichlorophenyl)-6,7,8,9-tetrahydro-5H-6,9-epiminocyclohepta[c]pyridine-10-carboxamide], the IC50 lay within 500 to 5000 nM.
The same measure, in the same setting: under `O=C(Nc1ccc(Cl)c(Cl)c1)N1C2CCC1C(F)c1ncncc12` (racemic) [Compound 113, Cis-(±)-N-(3,4-Dichlorophenyl)-9-fluoro-6,7,8,9-tetrahydro-5H-5,8-epiminocyclohepta[d]pyrimidine-10-carboxamide] stands 500 to 5000 nM.
On the same count and under the same terms, under `O=C(Nc1ccc(Cl)c(Cl)c1)N1C2CCC1C(F)c1ncncc12` (racemic) [Compound 114, trans-(±)-N-(3,4-Dichlorophenyl)-9-fluoro-6,7,8,9-tetrahydro-5H-5,8-epiminocyclohepta[d]pyrimidine-10-carboxamide] stands 500 to 5000 nM; under `O=C(Nc1ccc(Cl)c(Cl)c1)N1C2CCC1c1cnc(F)c(F)c1C2` (racemic) [Compound 135, (±)-N-(3,4-Dichlorophenyl)-3,4-difluoro-6,7,8,9-tetrahydro-5H-6,9-epiminocyclohepta[c]pyridine-10-carboxamide], 500 to 5000 nM.
As to `O=C(Nc1cc(Cl)c(C(F)(F)F)cc1F)N1C2CCC1c1cnc(F)c(F)c1C2` (racemic) [Compound 136, (±)-N-(5-Chloro-2-fluoro-4-(trifluoromethyl)phenyl)-3,4-difluoro-6,7,8,9-tetrahydro-5H-6,9-epiminocyclohepta[c]pyridine-10-carboxamide], the IC50 lay within 500 to 5000 nM.
Still for that read-out and setting: under `O=C(Nc1cc(Cl)c(Cl)cc1F)N1C2CCC1c1cnc(F)c(F)c1C2` (racemic) [Compound 137, (±)-N-(4,5-Dichloro-2-fluorophenyl)-3,4-difluoro-6,7,8,9-tetrahydro-5H-6,9-epiminocyclohepta[c]pyridine-10-carboxamide] stands 500 to 5000 nM.

The values above are taken from patent US20230373989A1, “N-PHENYLAMINOCARBONYL PYRIDINO-, PYRIMIDINO AND BENZO-TROPANES AS MODULATORS OF GPR65” (PATHIOS THERAPEUTICS LIMITED, priority 2020, published 2023).
